From patent US20260223846A1, “PEPTIDE IN COMBINATION WITH FUNGICIDE COMPOSITIONS FOR FUNGAL CONTROL AND RELATED METHODS” (priority 2023, published 2026)
Where two headings read alike, the source gives them in different places. Where no end group is shown, it is not given here.

Columns and labels:
Fusarium proliferatum = assay: Co-incubation (oCelloScope) assay, F. proliferatum conidial germination; type: cell-based
Botrytis (Strain B05.10) = assay: Botrytis inhibition assay (resazurin assay); type: cell-based; settings: for inhibition at 1 µM: tested alone at 1 μM
[1] = test system: Fusarium graminearum (Gibberella zeae); type: cell-based; settings: for Inhibition: 50 micromolar; for Summary of CGI factor spectrum of activity: Fusarium graminearum
[2] = test system: Fusarium oxysporum f. sp. lycopersici (Saccardo) Snyder et Hansen CBS 167.30; assay: Resazurin plate co-incubation assay, F. oxysporum; type: cell-based; settings: for Inhibition: 50 micromolar; for Summary of CGI factor spectrum of activity: Fusarium oxysporum
Botrytis cinerea b05.10 = type: cell-based
[3] = test system: Pseudoperonospora cubensis; assay: Pseudoperonospora cubensis (cucurbit downy mildew) leaf disk assay; type: in vivo; settings: for Summary of CGI factor spectrum of activity: Downy Mildew
[4] = tested alone at 0.2 ug/ml, 24 hours at 23° C.
[5] = tested alone at 2 ug/ml, 24 hours at 23° C.
[6] = read-out: Percent Inhibition EXP23002594
[7] = read-out: Percent Inhibition EXP23002662
[8] = tested alone at 5 uM, 24 hours at 23° C.
[9] = tested alone at 0.02 ug/ml, 24 hours at 23° C.
[10] = tested alone at 0.5 uM, 24 hours at 23° C.
[11] = tested alone at 1 uM, 24 hours at 23° C.
[12] = 10 micromolar, 24 hours at 20° C.
[13] = 100 micromolar, 24 hours at 20° C.
[14] = Botrytis cinerea, at least one concentration tested
[15] = tested alone at 0.25 uM, 24 hours at 23° C.

O=C(Nc1ccccc1-c1ccc(Cl)cc1)c1cccnc1Cl [Boscalid]
Inhibition of conidial germination (Fusarium proliferatum; [4]): neither boscalid nor trifloxystrobin showed any inhibition and No
Inhibition of conidial germination (Fusarium proliferatum; [5]): neither boscalid nor trifloxystrobin showed any inhibition and no inhibition and No

CC[C@H](C)C[C@H](C)CCCCCCCCC(=O)N[C@H]1C[C@@H](O)[C@@H](NCCN)NC(=O)[C@@H]2[C@@H](O)CCN2C(=O)[C@H]([C@H](O)CCN)NC(=O)[C@H]([C@H](O)[C@@H](O)c2ccc(O)cc2)NC(=O)[C@@H]2C[C@@H](O)CN2C(=O)[C@H]([C@@H](C)O)NC1=O [Caspofungin]
inhibition at 1 µM (Botrytis (Strain B05.10); read-out: Percent Inhibition EXP23002534): 1.08%
inhibition at 1 µM (Botrytis (Strain B05.10); [6]): 98.7%
inhibition at 1 µM (Botrytis (Strain B05.10); [7]): 3.1%

Cc1cc(C2CC2)nc(Nc2ccccc2)n1 [Cyprodinil]
inhibition at 50 µM (Botrytis (Strain B05.10); [6]): 73.6%
inhibition at 50 µM (Botrytis (Strain B05.10); [7]): 53.7%
inhibition at 100 µM (Botrytis (Strain B05.10); [7]): 74.8%

N#Cc1c[nH]cc1-c1cccc(Cl)c1Cl [Fenpiclonil]
Inhibition of conidial germination (Fusarium proliferatum; [8]): did not inhibit conidial germination and No
Inhibition of conidial germination (Fusarium proliferatum; tested alone at 10 uM, 24 hours at 23° C.): No
Inhibition of conidial germination (Fusarium proliferatum; tested alone at 50 uM, 24 hours at 23° C.): Yes

N#Cc1c[nH]cc1-c1cccc2c1OC(F)(F)O2 [Fludioxonil]
Inhibition of conidial germination (Fusarium proliferatum; [9]): did not show any inhibition and No
Inhibition of conidial germination (Fusarium proliferatum; [4]): No
Inhibition of conidial germination (Fusarium proliferatum; [5]): Yes

CC1(C)CCC(Cc2ccc(Cl)cc2)C1(O)Cn1cncn1 (stereo not shown) [Metconazole]
Inhibition of conidial germination (Fusarium proliferatum; [9]): did not show any inhibition and No
Inhibition of conidial germination (Fusarium proliferatum; [4]): No
Inhibition of conidial germination (Fusarium proliferatum; [5]): inhibited fungal growth and Yes

C[C@@H]1C/C=C/C=C/C=C/C=C/[C@H](O[C@@H]2O[C@H](C)[C@@H](O)[C@H](N)[C@@H]2O)C[C@@H]2O[C@](O)(C[C@@H](O)C[C@H]3O[C@@H]3/C=C/C(=O)O1)C[C@H](O)[C@H]2C(=O)O [Natamycin]
inhibition at 100 µM (Botrytis (Strain B05.10); Table 20, tested alone at 100 μM (positive control), read-out: Percent Inhibition (Median)): 101%
inhibition at 100 µM (Botrytis (Strain B05.10); tested alone at 100 μM (positive control 1), read-out: Percent Inhibition EXP23002534): 100%
inhibition at 100 µM (Botrytis (Strain B05.10); tested alone at 100 μM (positive control 1), read-out: Percent Inhibition EXP23002594): 101%
inhibition at 100 µM (Botrytis (Strain B05.10); tested alone at 100 μM, read-out: Percent Inhibition EXP23002662): 101%
Inhibition of conidial germination (Fusarium proliferatum; [8]): did not show any inhibition
Inhibition of conidial germination (Fusarium proliferatum; tested alone at 5 ug/ml, 24 hours at 23° C.): No
Inhibition of conidial germination (Fusarium proliferatum; tested alone at 10 ug/ml, 24 hours at 23° C.): No
Inhibition of conidial germination (Fusarium proliferatum; tested alone at 100 ug/ml, 24 hours at 23° C.): inhibited fungal growth and Yes

CON=C(C(=O)OC)c1ccccc1CON=C(C)c1cccc(C(F)(F)F)c1 [Trifloxystrobin]
Inhibition of conidial germination (Fusarium proliferatum; [4]): neither boscalid nor trifloxystrobin showed any inhibition and No
Inhibition of conidial germination (Fusarium proliferatum; [5]): neither boscalid nor trifloxystrobin showed any inhibition and No

Drosomycin (DCLSGRYKGPCAVWDNETCRRVCKEEGRSSGHCSPSLKCWCEGC; disulfide (positions not given here); not fully specified; ends not checked; also: four intramolecular disulfide bridges, pairing not given here; UniProt P41964 27-70, looked up) [44-residue antifungal peptide with four intramolecular disulfide bridges, heterologously expressed in E. coli]
Inhibition of conidial germination (Fusarium proliferatum; [10]): did not show any inhibition and No
Inhibition of conidial germination (Fusarium proliferatum; [11]): did not show any inhibition and No
Inhibition of conidial germination (Fusarium proliferatum; tested alone at 8 uM, 24 hours at 23° C.): Yes

RRRRRRRR [Pep462, Octaarginine (R8) cell-penetrating peptide (non-CGI peptide CONTROL)]
Inhibition [1]: Yes
Summary of CGI factor spectrum of activity [1]: Yes
Inhibition [2]: Yes
Summary of CGI factor spectrum of activity [2]: Yes
Inhibition (Botrytis cinerea b05.10; [12]): inhibited and Yes
Inhibition (Botrytis cinerea b05.10; [13]): inhibited and Yes
Summary of CGI factor spectrum of activity (Botrytis cinerea b05.10; [14]): completely inhibited conidial germination and Yes
Inhibition of conidial germination (Fusarium proliferatum; tested alone at 0.125 uM, 24 hours at 23° C.): No
Inhibition of conidial germination (Fusarium proliferatum; [15]): No
Inhibition of conidial germination (Fusarium proliferatum; [10]): No
Inhibition of conidial germination (Fusarium proliferatum; [11]): effective and Yes
Inhibition (reduced disease severity of leaf discs) ([3]; 20 micromolar): did not and No
Summary of CGI factor spectrum of activity [3]: No

WCGRPGQPC (REGION 1..9: note = Botrytis spp.) [Pep106, B. cinerea Alpha-pheromone]
Inhibition (Botrytis cinerea b05.10; [12]): No
Inhibition (Botrytis cinerea b05.10; [13]): No
Summary of CGI factor spectrum of activity (Botrytis cinerea b05.10; [14]): No

WCTWKGQPCW [Pep105]
Inhibition (Botrytis cinerea b05.10): No
Summary of CGI factor spectrum of activity (Botrytis cinerea b05.10): No
Inhibition of conidial germination (Fusarium proliferatum): No and Yes

WHWLQLKPGQPMY (listed as Saccharomyces cerevisiae) [Pep107, S. cerevisiae Alpha-pheromone]
Inhibition [1]: did not show any inhibition and No
Summary of CGI factor spectrum of activity [1]: No
Inhibition [2]: Yes
Summary of CGI factor spectrum of activity [2]: Yes
Inhibition (Botrytis cinerea b05.10; [12]): No
Inhibition (Botrytis cinerea b05.10; [13]): moderate inhibition and Some
Summary of CGI factor spectrum of activity (Botrytis cinerea b05.10; [14]): Yes
Inhibition (reduced disease severity of leaf discs) ([3]; 200 micromolar): reduced the disease severity and Yes
Summary of CGI factor spectrum of activity [3]: Yes

WHWLQLKPGQPMYGGGGWHWLQLKPGQPMY (listed as Saccharomyces cerevisiae) [Pep302, S. cerevisiae Alpha-pheromone homodimer with GGGG linker]
Inhibition of conidial germination (Fusarium proliferatum; [15]): No
Inhibition of conidial germination (Fusarium proliferatum; [10]): No
Inhibition of conidial germination (Fusarium proliferatum; [11]): Yes

WHWLQLKPGQPMYWHWLQLKPGQPMY (listed as Saccharomyces cerevisiae) [Pep301, S. cerevisiae Alpha-pheromone homodimer]
Inhibition [1]: Yes
Summary of CGI factor spectrum of activity [1]: Yes
Inhibition [2]: Yes
Summary of CGI factor spectrum of activity [2]: Yes
Inhibition (Botrytis cinerea b05.10; [12]): No
Inhibition (Botrytis cinerea b05.10; [13]): active and Yes
Summary of CGI factor spectrum of activity (Botrytis cinerea b05.10; [14]): completely inhibited conidial germination and Yes
Inhibition of conidial germination (Fusarium proliferatum; [15]): No
Inhibition of conidial germination (Fusarium proliferatum; [10]): No
Inhibition of conidial germination (Fusarium proliferatum; [11]): Yes
Inhibition (reduced disease severity of leaf discs) ([3]; 20 micromolar): reduced the disease severity and Yes
Summary of CGI factor spectrum of activity [3]: Yes
